In patent US12077503B2, “Substituted cyclic amides and their use as herbicides” (FMC CORPORATION, priority 2015, dated 2024):

Tests used:
Assay type in all cases: in vivo
[1] = test system: velvetleaf (Abutilon theophrasti); assay: Test G Post-Emergence Protocol; details: Abutilon theophrasti, post-emergence, 312 h; for pest or weed control at 15.625 g/ha: 15.625 g ai/ha, evaluated after 13 days (100=total damage to plant; 0=no damage to plant), read-out: Velvetleaf damage rating; for pest or weed control at 62.5 g/ha: 62.5 g ai/ha, read-out: Velvetleaf damage rating (100=total damage to plant; 0=no damage to plant); for pest or weed control at 62.5 g/ha / pest or weed control at 250 g/ha: evaluated after 13 days; for pest or weed control at 250 g/ha: 250 g ai/ha, read-out: damage to plant, Velvetleaf (100=total damage to plant; 0=no damage to plant)
Summary of the method: (§1)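 Damage was rated 13 days after treatment from 0 (none) to 100 (plant killed). Compound was applied as a spray at 15.625, 62.5 or 250 g/ha in 50:50 acetone/water containing 0.5% Tween 20, onto 8-day-old potted plants kept in a glasshouse (24/16 °C, 14 h light, 65% humidity).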

[2] = test system: redroot pigweed (Amaranthus retroflexus); assay: Test G Post-Emergence Protocol; details: Amaranthus retroflexus, post-emergence, 312 h; for pest or weed control at 15.625 g/ha: 15.625 g ai/ha, evaluated after 13 days (100=total damage to plant; 0=no damage to plant), read-out: Pigweed, Redroot damage rating; for pest or weed control at 62.5 g/ha: 62.5 g ai/ha, read-out: Pigweed, Redroot damage rating (100=total damage to plant; 0=no damage to plant); for pest or weed control at 62.5 g/ha / pest or weed control at 250 g/ha: evaluated after 13 days; for pest or weed control at 250 g/ha: 250 g ai/ha, read-out: damage to plant, Pigweed, Redroot (100=total damage to plant; 0=no damage to plant)
Summary of the method: as §1

[3] = test system: ivy-leaved morning glory (Ipomoea hederacea); assay: Test G Post-Emergence Protocol; details: Ipomoea, post-emergence, 312 h; for pest or weed control at 15.625 g/ha: 15.625 g ai/ha, evaluated after 13 days (100=total damage to plant; 0=no damage to plant), read-out: Morningglory, Ivy-leaved damage rating; for pest or weed control at 62.5 g/ha: 62.5 g ai/ha, read-out: Morningglory, Ivy-leaved damage rating (100=total damage to plant; 0=no damage to plant); for pest or weed control at 62.5 g/ha / pest or weed control at 250 g/ha: evaluated after 13 days; for pest or weed control at 250 g/ha: 250 g ai/ha, read-out: damage to plant, Morningglory, Ivy-leaved (100=total damage to plant; 0=no damage to plant)
Summary of the method: as §1

corn (Zea mays) [4] = assay: Test G Post-Emergence Protocol; details: Zea mays, post-emergence, 312 h; for plant injury at 15.625 g/ha: 15.625 g ai/ha, evaluated after 13 days (100=total damage to plant; 0=no damage to plant), read-out: Corn damage rating; for plant injury at 62.5 g/ha: 62.5 g ai/ha, read-out: Corn damage rating (100=total damage to plant; 0=no damage to plant); for plant injury at 62.5 g/ha / plant injury at 250 g/ha: evaluated after 13 days; for plant injury at 250 g/ha: 250 g ai/ha, read-out: damage to plant, Corn (100=total damage to plant; 0=no damage to plant)
Summary of the method: as §1

[5] = test system: barnyardgrass (Echinochloa crus-galli); assay: Test G Post-Emergence Protocol; details: Echinochloa crus-galli, post-emergence, 312 h; for pest or weed control at 15.625 g/ha: 15.625 g ai/ha, evaluated after 13 days (100=total damage to plant; 0=no damage to plant), read-out: Barnyardgrass damage rating; for pest or weed control at 62.5 g/ha: 62.5 g ai/ha, read-out: Barnyardgrass damage rating (100=total damage to plant; 0=no damage to plant); for pest or weed control at 62.5 g/ha / pest or weed control at 250 g/ha: evaluated after 13 days; for pest or weed control at 250 g/ha: 250 g ai/ha, read-out: damage to plant, Barnyardgrass (100=total damage to plant; 0=no damage to plant)
Summary of the method: as §1

[6] = test system: giant foxtail (Setaria faberi); assay: Test G Post-Emergence Protocol; details: Setaria faberi, post-emergence, 312 h; for pest or weed control at 15.625 g/ha: 15.625 g ai/ha, evaluated after 13 days (100=total damage to plant; 0=no damage to plant), read-out: Foxtail, Giant damage rating; for pest or weed control at 62.5 g/ha: 62.5 g ai/ha, read-out: Foxtail, Giant damage rating (100=total damage to plant; 0=no damage to plant); for pest or weed control at 62.5 g/ha / pest or weed control at 250 g/ha: evaluated after 13 days; for pest or weed control at 250 g/ha: 250 g ai/ha, read-out: damage to plant, Foxtail, Giant (100=total damage to plant; 0=no damage to plant)
Summary of the method: as §1

[7] = test system: velvetleaf (Abutilon theophrasti); assay: Test G Pre-Emergence Protocol; details: Abutilon theophrasti, pre-emergence, 312 h, evaluated after 13 days; for pest or weed control at 15.625 g/ha: 15.625 g ai/ha; for pest or weed control at 15.625 g/ha / pest or weed control at 250 g/ha: read-out: Velvetleaf damage rating (100=total damage to plant; 0=no damage to plant); for pest or weed control at 62.5 g/ha: 62.5 g ai/ha, 100=total damage to plant, 0=no damage to plant, read-out: plant damage rating, Velvetleaf; for pest or weed control at 250 g/ha: 250 g ai/ha
Summary of the method: (§2)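 Glasshouse pre-emergence test: soil-sown seeds, sprayed after 1 d at 15.625, 62.5 or 250 g/ha. Conditions 24/16° C day/night, 14 h light, 65% humidity, watering twice daily. Rating 13 d post-spray (100 = total damage).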

[8] = test system: redroot pigweed (Amaranthus retroflexus); assay: Test G Pre-Emergence Protocol; details: Amaranthus retroflexus, pre-emergence, 312 h, evaluated after 13 days; for pest or weed control at 15.625 g/ha: 15.625 g ai/ha; for pest or weed control at 15.625 g/ha / pest or weed control at 250 g/ha: read-out: Pigweed, Redroot damage rating (100=total damage to plant; 0=no damage to plant); for pest or weed control at 62.5 g/ha: 62.5 g ai/ha, 100=total damage to plant, 0=no damage to plant, read-out: plant damage rating, Pigweed, Redroot; for pest or weed control at 250 g/ha: 250 g ai/ha
Summary of the method: as §2

[9] = test system: ivy-leaved morning glory (Ipomoea hederacea); assay: Test G Pre-Emergence Protocol; details: Ipomoea, pre-emergence, 312 h, evaluated after 13 days; for pest or weed control at 62.5 g/ha: 62.5 g ai/ha, 100=total damage to plant, 0=no damage to plant, read-out: plant damage rating, Morningglory, Ivy-leaved; for pest or weed control at 250 g/ha: 250 g ai/ha, read-out: Morningglory, Ivy-leaved damage rating (100=total damage to plant; 0=no damage to plant)
Summary of the method: as §2

corn (Zea mays) [10] = assay: Test G Pre-Emergence Protocol; details: Zea mays, pre-emergence, 312 h, evaluated after 13 days; for plant injury at 15.625 g/ha: 15.625 g ai/ha; for plant injury at 15.625 g/ha / plant injury at 250 g/ha: read-out: Corn damage rating (100=total damage to plant; 0=no damage to plant); for plant injury at 62.5 g/ha: 62.5 g ai/ha, 100=total damage to plant, 0=no damage to plant, read-out: plant damage rating, Corn; for plant injury at 250 g/ha: 250 g ai/ha
Summary of the method: as §2

[11] = test system: barnyardgrass (Echinochloa crus-galli); assay: Test G Pre-Emergence Protocol; details: Echinochloa crus-galli, pre-emergence, 312 h, evaluated after 13 days; for pest or weed control at 15.625 g/ha: 15.625 g ai/ha, read-out: Barnyard grass damage rating (100=total damage to plant; 0=no damage to plant); for pest or weed control at 62.5 g/ha: 62.5 g ai/ha, 100=total damage to plant, 0=no damage to plant, read-out: plant damage rating, Barnyardgrass; for pest or weed control at 250 g/ha: 250 g ai/ha, read-out: Barnyardgrass damage rating (100=total damage to plant; 0=no damage to plant)
Summary of the method: as §2

[12] = test system: giant foxtail (Setaria faberi); assay: Test G Pre-Emergence Protocol; details: Setaria faberi, pre-emergence, 312 h, evaluated after 13 days; for pest or weed control at 15.625 g/ha: 15.625 g ai/ha; for pest or weed control at 15.625 g/ha / pest or weed control at 250 g/ha: read-out: Foxtail, Giant damage rating (100=total damage to plant; 0=no damage to plant); for pest or weed control at 62.5 g/ha: 62.5 g ai/ha, 100=total damage to plant, 0=no damage to plant, read-out: plant damage rating, Foxtail, Giant; for pest or weed control at 250 g/ha: 250 g ai/ha
Summary of the method: as §2

| SMILES | pest or weed control at 15.625 g/ha [1] [%] | pest or weed control at 62.5 g/ha [1] [%] | pest or weed control at 250 g/ha [1] [%] | pest or weed control at 15.625 g/ha [2] [%] | pest or weed control at 62.5 g/ha [2] [%] | pest or weed control at 250 g/ha [2] [%] | pest or weed control at 15.625 g/ha [3] [%] | pest or weed control at 62.5 g/ha [3] [%] | pest or weed control at 250 g/ha [3] [%] | plant injury at 15.625 g/ha (corn (Zea mays) [4]) [%] | plant injury at 62.5 g/ha (corn (Zea mays) [4]) [%] | plant injury at 250 g/ha (corn (Zea mays) [4]) [%] | pest or weed control at 15.625 g/ha [5] [%] | pest or weed control at 62.5 g/ha [5] [%] | pest or weed control at 250 g/ha [5] [%] | pest or weed control at 15.625 g/ha [6] [%] | pest or weed control at 62.5 g/ha [6] [%] | pest or weed control at 250 g/ha [6] [%] | pest or weed control at 15.625 g/ha [7] [%] | pest or weed control at 62.5 g/ha [7] [%] | also measured |
| --- | --- | --- | --- | --- | --- | --- | --- | --- | --- | --- | --- | --- | --- | --- | --- | --- | --- | --- | --- | --- | --- |
| Cc1cc(NC(=O)[C@@H]2C(=O)N(C)C[C@H]2c2ccc(C(F)(F)F)cc2)sn1 (racemic) [Compound 1560] | 0 | 0 | 10 | 0 | 0 | 20 | 0 | 0 | 0 | 0 | 0 | 0 | 0 | 0 | 20 | 0 | 0 | 20 | 0 | 0 | pest or weed control at 250 g/ha [7]: 0%; pest or weed control at 15.625 g/ha [8]: 0%; pest or weed control at 62.5 g/ha [8]: 0%; pest or weed control at 250 g/ha [8]: 0%; pest or weed control at 15.625 g/ha ([9]; 15.625 g ai/ha, read-out: Morning-glory, Ivy-leaved damage rating (100=total damage to plant; 0=no damage to plant)): 0%; pest or weed control at 62.5 g/ha [9]: 0%; pest or weed control at 250 g/ha [9]: 0%; plant injury at 15.625 g/ha (corn (Zea mays) [10]): 0%; plant injury at 62.5 g/ha (corn (Zea mays) [10]): 0%; plant injury at 250 g/ha (corn (Zea mays) [10]): 10%; pest or weed control at 15.625 g/ha [11]: 0%; pest or weed control at 62.5 g/ha [11]: 0%; pest or weed control at 250 g/ha [11]: 10%; pest or weed control at 15.625 g/ha [12]: 0%; pest or weed control at 62.5 g/ha [12]: 0%; pest or weed control at 250 g/ha [12]: 10% |
| CN1C[C@@H](c2ccc(C(F)(F)F)cc2)[C@H](C(=O)Nc2ccc(Cl)nn2)C1=O (racemic) [Compound 1561] | 0 | 40 | 20 | 0 | 20 | 30 | 0 | 10 | 60 | 0 | 0 | 50 | 0 | 20 | 50 | 0 | 10 | 60 | 0 | 0 | pest or weed control at 250 g/ha [7]: 10%; pest or weed control at 15.625 g/ha [8]: 0%; pest or weed control at 62.5 g/ha [8]: 20%; pest or weed control at 250 g/ha [8]: 30%; pest or weed control at 62.5 g/ha [9]: 0%; pest or weed control at 250 g/ha [9]: 20%; plant injury at 15.625 g/ha (corn (Zea mays) [10]): 10%; plant injury at 62.5 g/ha (corn (Zea mays) [10]): 0%; plant injury at 250 g/ha (corn (Zea mays) [10]): 20%; pest or weed control at 15.625 g/ha [11]: 30%; pest or weed control at 62.5 g/ha [11]: 50%; pest or weed control at 250 g/ha [11]: 80%; pest or weed control at 15.625 g/ha [12]: 30%; pest or weed control at 62.5 g/ha [12]: 60%; pest or weed control at 250 g/ha [12]: 70% |
| CN1C[C@@H](c2ccc(C(F)(F)F)cc2)[C@H](C(=O)Nc2nnc[nH]2)C1=O (racemic) [Compound 1562] | 0 | 0 | 0 | 0 | 10 | 20 | 0 | 0 | 0 | 0 | 10 | 0 | 0 | 0 | 20 | 0 | 0 | 20 | 0 | 0 | pest or weed control at 250 g/ha [7]: 0%; pest or weed control at 15.625 g/ha [8]: 0%; pest or weed control at 62.5 g/ha [8]: 0%; pest or weed control at 250 g/ha [8]: 0%; pest or weed control at 62.5 g/ha [9]: 0%; pest or weed control at 250 g/ha [9]: 0%; plant injury at 15.625 g/ha (corn (Zea mays) [10]): 0%; plant injury at 62.5 g/ha (corn (Zea mays) [10]): 0%; plant injury at 250 g/ha (corn (Zea mays) [10]): 0%; pest or weed control at 15.625 g/ha [11]: 0%; pest or weed control at 62.5 g/ha [11]: 0%; pest or weed control at 250 g/ha [11]: 20%; pest or weed control at 250 g/ha [12]: 30% |
